Experimental data taken from patent publication US20220395528A1, “AGENT FOR PREVENTING OR TREATING […] DEVICE FOR PREVENTING OR TREATING ARRHYTHMIA” (SCHOOL JURIDICAL PERSON THE KITASATO INSTITUTE, priority 2019, published 2022).

Experiments:
[1] = high-concentration hydrogen inhaled, gaseous hydrogen used as a gas for diving; cited from earlier work
Pigs = experiment: Number of arrhythmias on electrocardiogram in pigs after balloon occlusion of the anterior descending branch of the left coronary artery, gas inhalation (Experiment Example 1); assay type: in vivo; settings: coronary blood flow interrupted, counted for 10 minutes of inhalation versus the preceding 10 minutes, FIG. 3
Procedure: Pigs were anesthetized with pentobarbital, and electrocardiogram measurement was performed. After tracheal intubation, an artificial respirator was connected, and respiratory management was performed. A catheter was inserted into the descending aorta from the inguinal region, a balloon was placed in the anterior descending branch of the left coronary artery, and the balloon was inflated to interrupt the blood flow. After 40 minutes, an electrocardiogram was measured without doing anything for 10 minutes, the number of arrhythmias was counted, and after that, for 10 minutes, the number of arrhythmias was counted in the same manner for a control group, a hydrogen inhalation group, a nitric oxide inhalation group, or a combination group (hydrogen and nitric oxide inhalation group) in a divided manner.
A gas inhaled by the control group was a mixed gas (oxygen concentration of 35%) of oxygen and nitrogen and containing no hydrogen or nitric oxide.

Compound | side effects [1] | number of arrhythmias (Pigs; mixed gas of air and hydrogen, hydrogen concentration 1.3%) | number of arrhythmias (Pigs; mixed gas of air and nitric oxide, nitric oxide concentration 80 ppm)
[HH] [hydrogen] | no side effects | decreased | –
[N]=O [nitric oxide, reference compound] | – | – | increase
